Assay results reported in paper PMC3326594 (Journal of Medicinal Chemistry, 2012).

Experiments:
P-gp = P-gp (Homo sapiens, UniProt P08183); details: for LE (ligand efficiency): binding free energy from IC50 per heavy atom, 310 K; for LipE (lipophilic efficiency): from pIC50 and clogP (eq 5)
P-glycoprotein (P-gp) = P-glycoprotein (P-gp) (Homo sapiens, UniProt P08183); assay: Inhibition of daunorubicin efflux in multidrug resistant CCRF-CEM vcr 1000 cells; type: cell-based
hERG potassium channel = details: hERG blockers from literature; cited from earlier work
[1] = pIC50 calcd, predicted from the clogP/pIC50 correlation line (Figure 2)

P-gp, sequence (P08183 whole entry): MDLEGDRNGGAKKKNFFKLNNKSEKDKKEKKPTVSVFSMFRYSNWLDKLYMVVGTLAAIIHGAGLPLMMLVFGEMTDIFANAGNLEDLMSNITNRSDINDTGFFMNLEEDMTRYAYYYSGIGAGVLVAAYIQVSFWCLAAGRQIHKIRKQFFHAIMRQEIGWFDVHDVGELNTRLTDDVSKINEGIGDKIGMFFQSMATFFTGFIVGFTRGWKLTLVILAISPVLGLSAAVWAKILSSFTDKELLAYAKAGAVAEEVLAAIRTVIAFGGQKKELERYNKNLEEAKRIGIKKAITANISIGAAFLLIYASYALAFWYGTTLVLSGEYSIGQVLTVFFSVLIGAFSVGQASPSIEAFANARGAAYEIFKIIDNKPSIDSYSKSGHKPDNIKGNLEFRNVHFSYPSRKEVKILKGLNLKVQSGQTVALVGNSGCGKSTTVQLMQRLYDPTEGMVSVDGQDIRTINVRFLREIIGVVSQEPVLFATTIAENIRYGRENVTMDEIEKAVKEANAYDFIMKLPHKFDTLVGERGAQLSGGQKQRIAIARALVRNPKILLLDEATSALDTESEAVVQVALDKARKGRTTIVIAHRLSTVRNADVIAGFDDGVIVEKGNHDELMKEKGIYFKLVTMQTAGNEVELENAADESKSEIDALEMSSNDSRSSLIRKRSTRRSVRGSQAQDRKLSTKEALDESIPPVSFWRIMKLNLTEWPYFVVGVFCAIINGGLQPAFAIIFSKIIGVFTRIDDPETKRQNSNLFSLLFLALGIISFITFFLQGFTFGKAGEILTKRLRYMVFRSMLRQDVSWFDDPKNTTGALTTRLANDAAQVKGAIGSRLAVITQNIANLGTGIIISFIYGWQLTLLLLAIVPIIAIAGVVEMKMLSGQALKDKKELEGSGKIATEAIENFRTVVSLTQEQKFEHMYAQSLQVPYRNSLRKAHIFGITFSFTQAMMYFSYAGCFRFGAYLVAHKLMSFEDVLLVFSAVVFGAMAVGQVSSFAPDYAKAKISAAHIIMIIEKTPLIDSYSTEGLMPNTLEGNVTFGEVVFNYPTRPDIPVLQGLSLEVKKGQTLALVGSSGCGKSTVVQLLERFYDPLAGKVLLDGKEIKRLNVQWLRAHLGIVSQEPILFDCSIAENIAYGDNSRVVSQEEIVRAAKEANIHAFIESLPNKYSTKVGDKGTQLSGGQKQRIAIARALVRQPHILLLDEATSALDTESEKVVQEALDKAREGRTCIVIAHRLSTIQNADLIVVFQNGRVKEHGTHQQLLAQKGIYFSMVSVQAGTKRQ
P-glycoprotein (P-gp), sequence (P08183 whole entry): as above

LE (ligand efficiency) (P-gp)	LipE (lipophilic efficiency) (P-gp)	SMILES	further results
0.29 kcal per heavy atom	0.19	CCOC/C=C/c1ccc(-c2nc(-c3ccc(NC(C)C)cc3)c(-c3ccc(NC(C)C)cc3)[nH]2)cc1 [ONT093]	–
0.33 kcal per heavy atom	–	O=C(c1ccccc1)c1ccccc1OCC(O)CN1CCCCC1 (centres unmarked) [Compound 12]	–
0.35 kcal per heavy atom	–	CCCNCC(O)COc1ccccc1C(=O)c1ccc(C)cc1 (centres unmarked) [Compound 20]	–
0.23 kcal per heavy atom	–	O=C(c1ccccc1)c1ccccc1OCC(O)CN1CCN(CC(O)COc2ccccc2C(=O)c2ccccc2)CC1 (centres unmarked) [Compound 23]	IC50 (P-glycoprotein (P-gp); [1]): 794 nM; IC50 (P-glycoprotein (P-gp); pIC50 obs, observed, daunorubicin efflux inhibition): 53.7 nM; more active than equilipophilic compound 21 (P-glycoprotein (P-gp); pairwise comparison of IC50, 23 vs 21): about 1 order of magnitude
–	–	O=C(c1ccccc1)c1ccccc1OCC(O)CN1CCC(O)(c2ccccc2)CC1 (centres unmarked) [Compound 19]	IC50 (P-glycoprotein (P-gp); [1]): 1740 nM; factor more active than equilipophilic compound 20 (P-glycoprotein (P-gp); pairwise comparison of IC50, 19 vs 20): ~4 fold
–	–	CN(CCOc1ccc(NS(C)(=O)=O)cc1)CCc1ccc(NS(C)(=O)=O)cc1 [dofetilide]	potency values (hERG potassium channel): < 10 nM
0.33 kcal per heavy atom	1.84	O=C(CCc1ccccc1)c1ccccc1OCC(O)CN1CCCCC1 (centres unmarked) [GPV005]	–
0.22 kcal per heavy atom	1.93	COc1cc2c(cc1OC)CN(CCc1ccc(NC(=O)c3cc(OC)c(OC)cc3NC(=O)c3cnc4ccccc4c3)cc1)CC2 [Tariquidar]	–
0.18 kcal per heavy atom	–	CC(=O)c1cc(C)ccc1OCC(O)CN1CCN(CC(O)COc2ccccc2C(=O)c2ccccc2)CC1 (centres unmarked) [Compound 24, 1-[2-(3-{4-[3-(2-Benzoyl-phenoxy)-2-hydroxyl-propyl]-piperazine-1-yl}-2-hydroxy-propoxy)-5-methyl-phenyl]-ethanone]	–

SMILES	LE (ligand efficiency) (P-gp)	LipE (lipophilic efficiency) (P-gp)	further results
O=C(CCc1ccccc1)c1ccccc1OCC(O)CN1CCC(O)(c2ccccc2)CC1 (centres unmarked) [GPV062]	0.30 kcal per heavy atom	–	–
